In paper PMC9791652 (Journal of Medicinal Chemistry, 2022):
In brackets after ≈: the same amount, converted by molar mass. Read-outs that look alike come from different tables or passages of the source.

Key:
[1] = system: streptomycin starved 18b nonreplicating Mtb (ss18b-lux); type: cell-based, Mycobacterium tuberculosis; details: for bactericidal activity against nonreplicating ss18b-lux by cfu counting: 7 days of antibiotic exposure; for drop in bacterial counts (cfu) of ss18b-lux: 7 days of exposure
[2] = system: noninfected zebrafish larvae; details: data not shown
H37Rv = type: cell-based, Mycobacterium tuberculosis
[3] = system: Escherichia coliΔtolC (BW25113 ΔtolC); experiment: organism not typed; type: cell-based
physchem = details: pH 7.4
[4] = system: M. marinum (expressing Wasabi) infected zebrafish larvae; type: in vivo; details: for lowest dose significantly prolonging survival of infected zebrafish: 4-day exposure in water, refreshed daily, 1 to 5 dpi
Mtb H37Rv ATP levels = experiment: Impact of TriSLa exposure on Mtb ATP levels; type: cell-based, Mycobacterium tuberculosis; details: 24 h exposure
[5] = system: Mtb H37Rv NADH/NAD+ ratio; experiment: Impact of TriSLa exposure on Mtb NADH and NAD+ levels; type: cell-based, Mycobacterium tuberculosis
[6] = mouse liver microsomes

SMILES | ss18b-lux luminescence signal [1] | bactericidal activity against nonreplicating ss18b-lux by cfu counting [1] | toxicity in noninfected zebrafish larvae [2] | MIC [3] [µM] | lowest dose significantly prolonging survival of infected zebrafish [4] [µM] | bacterial ATP concentrations (Mtb H37Rv ATP levels) | also measured
NNC(=O)c1ccncc1 [isoniazid] | increase in luminescence | no significant bactericidal activity | – | – | – | – | –
CC(C)[C@H]1CO[C@]23CCN(Cc4ccc(OC(F)(F)F)cc4)C[C@H]2CCC(=O)N13 [Compound 12, (3S,7aR,11aR)-3-Isopropyl-9-[[4-(trifluoromethoxy)phenyl]methyl]-2,3,6,7,7a,8,10,11-octahydrooxazolo[2,3-j][1,6]naphthyridin-5-one] | time-dependent decrease in luminescence | concentration-dependent killing | did not interfere with larval development or show any toxicity | 100 (≈ 41.2 µg/mL) | 0.3 | concentration-dependent shutdown in bacterial ATP concentrations | bactericidal activity by cfu at 1× MIC (H37Rv): bacteriostatic; drop in cfu after 1 week (H37Rv): ~0.8 log; drop in cfu after 2 weeks (H37Rv): ~2.0 log; logD (physchem): 3.4; drop in bacterial counts (cfu) of ss18b-lux ([1]; 4.8 μM): 1–2 log; bacterial load (fluorescence pixel count) in infected zebrafish ([4]; 0.5 μg/mL ([…]), 2–4 days of exposure): bacteriostatic; bacterial load (fluorescence pixel count) in infected zebrafish ([4]; 2 μg/mL (4.8 μM), between 2 and 4 days of exposure): significant decrease in the bacterial burden; infection foci in fluorescence images ([4]; 0.25 to 2 μg/mL (0.6–4.8 μM), 2 or 4-day treatment): fewer and less intense infection foci
CO[C@H]1/C=C/O[C@@]2(C)Oc3c(C)c(O)c4c(O)c(c(/C=N/N5CCN(C)CC5)c(O)c4c3C2=O)NC(=O)/C(C)=C\C=C\[C@H](C)[C@H](O)[C@@H](C)[C@@H](O)[C@@H](C)[C@H](OC(C)=O)[C@@H]1C [rifampicin] | time-dependent decrease in luminescence | bactericidal | – | – | – | – | Mtb NADH/NAD+ ratio relative to untreated bacteria [5]: decrease in NADH/NAD^+; drop in bacterial counts (cfu) of ss18b-lux ([1]; 0.6 μM, stated as similar to 11 and 12 at 4.8 μM): 1–2 log
COc1nc2ccc(Br)cc2cc1[C@@H](c1ccccc1)[C@@](O)(CCN(C)C)c1cccc2ccccc12 [bedaquiline] | time-dependent decrease in luminescence | bactericidal | – | – | – | concentration-dependent shutdown in bacterial ATP concentrations | bactericidal activity by cfu at 1× and 2× MIC (H37Rv; H37Rv, 1× and 2× MIC (250 and 500 nM), 2 week exposure period): largely bacteriostatic; Mtb NADH/NAD+ ratio relative to untreated bacteria [5]: increase in the NADH/NAD^+ ratio; drop in bacterial counts (cfu) of ss18b-lux ([1]; 1 μM, stated as similar to 11 and 12 at 4.8 μM): 1–2 log
CC(C)[C@H]1CO[C@]23CCN(Cc4ccccc4)C[C@H]2CCC(=O)N13 [Compound 1, (3S,7aR,11aR)-9-Benzyl-3-isopropyl-2,3,6,7,7a,8,10,11-octahydrooxazolo[2,3-j][1,6]naphthyridin-5-one] | – | – | – | > 100 | – | – | metabolic stability (in words) [6]: high clearance
CC(C)[C@H]1CO[C@]23CCN(Cc4ccc(C(F)(F)F)nc4)C[C@H]2CCC(=O)N13 [Compound 13, (3S,7aR,11aR)-3-Isopropyl-9-[[6-(trifluoromethyl)-3-pyridyl]methyl]-2,3,6,7,7a,8,10,11-octahydrooxazolo[2,3-j][1,6]naphthyridin-5-one] | – | – | did not interfere with larval development or show any toxicity | – | 1.2 | – | –
CC(C)[C@H]1CO[C@]23CCN(Cc4ccc(C(F)(F)F)cc4)C[C@H]2CCC(=O)N13 [Compound 11, (3S,7aR,11aR)-3-Isopropyl-9-[[4-(trifluoromethyl)phenyl]methyl]-2,3,6,7,7a,8,10,11-octahydrooxazolo[2,3-j][1,6]naphthyridin-5-one] | time-dependent decrease in luminescence | concentration-dependent killing | did not interfere with larval development or show any toxicity | 100 (≈ 39.6 µg/mL) | 0.3 | concentration-dependent shutdown in bacterial ATP concentrations | bactericidal activity by cfu at 1× MIC (H37Rv): bacteriostatic; drop in cfu after 1 week (H37Rv): ~0.8 log; drop in cfu after 2 weeks (H37Rv): ~2.0 log; logD (physchem): 3.9; drop in bacterial counts (cfu) of ss18b-lux ([1]; 4.8 μM): 1–2 log
